Several values for one entry are separate records, joined by “and”; a condition that tells them apart may be missing. Equal values may be shown once. Toxic doses and inconclusive results are not listed. No stated cut-off is given here; in the data, active means T/C of 150% or more; inactive means T/C below 125%.
Test system: L1210 leukemia ip in BDF1 mice, survival T/C
Experiment: NCI In Vivo Anticancer Drug Screen. Data for tumor model L1210 Leukemia (intraperitoneal) in B6D2F1 (BDF1) mice
Conditions: endpoint: mean survival time, higher = longer survival
How it was run: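 Tumor was transplanted into mice, which were then dosed with test compound or vehicle alone. Survival was recorded for each group, and the treated figure was expressed relative to the control figure.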

[1] = dose: 75.0 mg/kg/injection, schedule: Q01DX001 (ip), vehicle: saline
[2] = dose: 150.0 mg/kg/injection, schedule: Q01DX001 (ip), vehicle: saline
[3] = dose: 200.0 mg/kg/injection, schedule: Q01DX001 (ip), vehicle: Klucel (hydroxypropylcellulose) (HPC)
[4] = dose: 200.0 mg/kg/injection, schedule: Q01DX001 (ip), vehicle: saline
[5] = dose: 100.0 mg/kg/injection, schedule: Q01DX009 (ip), vehicle: Klucel (hydroxypropylcellulose) (HPC)
[6] = dose: 200.0 mg/kg/injection, schedule: Q01DX009 (ip), vehicle: Klucel (hydroxypropylcellulose) (HPC)
[7] = dose: 400.0 mg/kg/injection, schedule: Q01DX009 (ip), vehicle: Klucel (hydroxypropylcellulose) (HPC)
[8] = dose: 100.0 mg/kg/injection, schedule: Q01DX009 (ip), vehicle: saline with Tween-80
[9] = dose: 200.0 mg/kg/injection, schedule: Q01DX009 (ip), vehicle: saline with Tween-80
[10] = dose: 400.0 mg/kg/injection, schedule: Q01DX009 (ip), vehicle: saline with Tween-80
[11] = dose: 100.0 mg/kg/injection, schedule: Q04DX003 (ip), vehicle: saline with Tween-80
[12] = dose: 200.0 mg/kg/injection, schedule: Q04DX003 (ip), vehicle: saline with Tween-80
[13] = dose: 400.0 mg/kg/injection, schedule: Q04DX003 (ip), vehicle: saline with Tween-80
[14] = dose: 100.0 mg/kg/injection, schedule: Q01DX009 (ip), vehicle: saline
[15] = dose: 100.0 mg/kg/injection, schedule: Q04DX003 (ip), vehicle: saline
[16] = dose: 200.0 mg/kg/injection, schedule: Q04DX003 (ip), vehicle: saline
[17] = dose: 400.0 mg/kg/injection, schedule: Q04DX003 (ip), vehicle: saline
[18] = dose: 100.0 mg/kg/injection, schedule: Q01DX001 (ip), vehicle: carboxymethylcellulose (CMC)
[19] = dose: 200.0 mg/kg/injection, schedule: Q01DX001 (ip), vehicle: carboxymethylcellulose (CMC)
[20] = dose: 400.0 mg/kg/injection, schedule: Q01DX001 (ip), vehicle: carboxymethylcellulose (CMC)
[21] = dose: 100.0 mg/kg/injection, schedule: Q01DX001 (ip), vehicle: saline
[22] = dose: 400.0 mg/kg/injection, schedule: Q01DX001 (ip), vehicle: saline
[23] = dose: 50.0 mg/kg/injection, schedule: Q01DX009 (ip), vehicle: Klucel (hydroxypropylcellulose) (HPC)

Measured: T/C

COc1cc(-c2c3c(cc4c2OCO4)CC(O)C(C(=O)O)C3)cc(OC)c1OC (stereo unspecified)
inactive: [1] 95 % of control | [2] 116 % of control | [3] 109 % of control | [4] 114 % of control | dose: 300.0 mg/kg/injection, schedule: Q01DX001 (ip), vehicle: Klucel (hydroxypropylcellulose) (HPC) 116 % of control

Fc1ccc(/C=C2/c3cc(Cl)ccc3-c3c(Cl)cc(Cl)cc32)cc1
inactive: dose: 100.0 mg/kg/injection, schedule: Q01DX001 (ip), vehicle: Klucel (hydroxypropylcellulose) (HPC) 96 % of control | [5] 98 % of control | dose: 100.0 mg/kg/injection, schedule: Q04DX003 (ip), vehicle: Klucel (hydroxypropylcellulose) (HPC) 98 % of control | [3] 90 % of control | [6] 104 % of control | dose: 200.0 mg/kg/injection, schedule: Q04DX003 (ip), vehicle: Klucel (hydroxypropylcellulose) (HPC) 90 % of control | dose: 400.0 mg/kg/injection, schedule: Q01DX001 (ip), vehicle: Klucel (hydroxypropylcellulose) (HPC) 89 % of control | [7] 114 % of control | dose: 400.0 mg/kg/injection, schedule: Q04DX003 (ip), vehicle: Klucel (hydroxypropylcellulose) (HPC) 95 % of control

O=C1NC(=O)C(O)(C2(O)C(=O)NC(=O)NC2=O)C(=O)N1
inactive: dose: 75.0 mg/kg/injection, schedule: Q01DX001 (ip), vehicle: carboxymethylcellulose (CMC) 101 % of control | [8] 106 % of control | dose: 150.0 mg/kg/injection, schedule: Q01DX001 (ip), vehicle: carboxymethylcellulose (CMC) 102 % of control | [9] 92 % of control | [10] 88 % of control

O=C(O)CN1C(=O)C2C3CCC(C3)C2C1=O (stereo unspecified)
inactive: [11] 97 % of control | [12] 97 % of control | [13] 94 % of control

CC(CC(=O)O)NC(=O)OCc1ccccc1 (stereo unspecified)
inactive: dose: 100.0 mg/kg/injection, schedule: Q01DX001 (ip), vehicle: saline with Tween-80 101 % of control | [8] 100 % of control and 107 % of control | [11] 103 % of control | dose: 200.0 mg/kg/injection, schedule: Q01DX001 (ip), vehicle: saline with Tween-80 98 % of control | [9] 97 % of control and 90 % of control | [12] 94 % of control | dose: 400.0 mg/kg/injection, schedule: Q01DX001 (ip), vehicle: saline with Tween-80 95 % of control | [10] 100 % of control and 90 % of control | [13] 97 % of control

O=C(NCCCl)NC1CCCCCC1
inactive: [5] 101 % of control | [6] 108 % of control | [7] 100 % of control

O=S(=O)(Oc1ccc(Cl)cc1)c1ccc(Cl)cc1
inactive: [14] 88 % of control | [15] 103 % of control | [16] 98 % of control | dose: 400.0 mg/kg/injection, schedule: Q01DX009 (ip), vehicle: saline 90 % of control | [17] 103 % of control

CCCCCCC1CC2CCCCC2CC1CCCC (stereo unspecified)
inactive: [18] 96 % of control | [19] 100 % of control | [20] 94 % of control

O=C(O)/C(=C\c1ccc([N+](=O)[O-])cc1)CCc1ccccc1
inactive: [5] 91 % of control | [6] 92 % of control | [7] 92 % of control

O=c1cc(-c2ccccc2)oc2cc(O)cc(O)c12
inactive: dose: 50.0 mg/kg/injection, schedule: Q01DX001 (ip), vehicle: saline 100 % of control | [21] 100 % of control | [4] 100 % of control | [22] 100 % of control

C=CC(=C)CCC=C(C)C
inactive: dose: 25.0 mg/kg/injection, schedule: Q04DX003 (ip), vehicle: saline 101 % of control | dose: 50.0 mg/kg/injection, schedule: Q04DX003 (ip), vehicle: saline 101 % of control | [15] 97 % of control | [16] 87 % of control | [17] 86 % of control

CCCCCP(=O)(CCCC)CCCCC
inactive: [23] 89 % of control | [5] 89 % of control

O=C(CN1C(=O)CCC1=O)Oc1ccc([N+](=O)[O-])cc1
inactive: [21] 91 % of control | [4] 98 % of control | [22] 102 % of control

CCC1=C(CC2NCCc3ccccc32)CC2c3cc(OC)c(OC)cc3CCN2C1 (stereo unspecified)
inactive: dose: 4.0 mg/kg/injection, schedule: Q04DX003 (ip), vehicle: water 103 % of control | dose: 8.0 mg/kg/injection, schedule: Q04DX003 (ip), vehicle: water 103 % of control | dose: 16.0 mg/kg/injection, schedule: Q04DX003 (ip), vehicle: water 102 % of control | dose: 32.0 mg/kg/injection, schedule: Q04DX003 (ip), vehicle: water 102 % of control | dose: 64.0 mg/kg/injection, schedule: Q04DX003 (ip), vehicle: water 102 % of control | [1] 95 % of control and 103 % of control | [2] 100 % of control and 103 % of control | dose: 300.0 mg/kg/injection, schedule: Q01DX001 (ip), vehicle: saline 100 % of control

CCCCCCCCCCOc1ccc(OCCCCCCCCC)cc1
inactive: [11] 94 % of control | [12] 100 % of control | [13] 87 % of control

O=C(O)CCN(CCC(=O)O)CCC(=O)O
inactive: dose: 44.0 mg/kg/injection, schedule: Q01DX009 (ip), vehicle: alkali diluted with saline 97 % of control | dose: 66.0 mg/kg/injection, schedule: Q01DX009 (ip), vehicle: saline 96 % of control | dose: 67.0 mg/kg/injection, schedule: Q01DX009 (ip), vehicle: alkali diluted with saline 98 % of control | dose: 100.0 mg/kg/injection, schedule: Q01DX009 (ip), vehicle: alkali diluted with saline 101 % of control | [14] 94 % of control | dose: 100.0 mg/kg/injection, schedule: Q04DX003 (ip), vehicle: alkali diluted with saline 100 % of control | dose: 150.0 mg/kg/injection, schedule: Q01DX009 (ip), vehicle: alkali diluted with saline 103 % of control | dose: 150.0 mg/kg/injection, schedule: Q01DX009 (ip), vehicle: saline 102 % of control | [9] 101 % of control | dose: 200.0 mg/kg/injection, schedule: Q04DX003 (ip), vehicle: alkali diluted with saline 108 % of control | [10] 100 % of control | dose: 400.0 mg/kg/injection, schedule: Q04DX003 (ip), vehicle: alkali diluted with saline 97 % of control

Cn1nnnc1CCN(N)CCN(N)CCc1nnnn1C
inactive: [21] 103 % of control | [4] 92 % of control | [22] 95 % of control

CCOC(=O)C[Si](C)(c1ccccc1)c1ccccc1
inactive: [21] 108 % of control | [4] 94 % of control | [22] 89 % of control

COc1ccc(CNS(=O)(=O)c2ccc(C)cc2)cc1OC
inactive: [18] 96 % of control | [19] 110 % of control | [20] 116 % of control

CC1(C)CCOC(C2OCCC(C)(C)O2)O1 (stereo unspecified)
inactive: dose: 50.0 mg/kg/injection, schedule: Q01DX009 (ip), vehicle: acetone 113 % of control | dose: 100.0 mg/kg/injection, schedule: Q01DX009 (ip), vehicle: acetone 93 % of control | dose: 200.0 mg/kg/injection, schedule: Q01DX009 (ip), vehicle: acetone 98 % of control

CC(=O)Oc1ccc(OC(C)=O)c2c1C=CC=CC2
inactive: [11] 104 % of control | [12] 86 % of control | [13] 94 % of control

O=C(NO)C1CCC(C(=O)NO)CC1 (stereo unspecified)
inactive: [8] 92 % of control | [9] 89 % of control | [10] 89 % of control

O=C(CNC(=O)c1ccc(Cl)c(Cl)c1)N/N=C/c1ccc(Cl)cc1
inactive: [23] 93 % of control | [5] 88 % of control | [6] 98 % of control

Cc1ccc(N2C(=O)CSC2=S)cc1F
inactive: dose: 100.0 mg/kg/injection, schedule: Q04DX002 (ip), vehicle: Klucel (hydroxypropylcellulose) (HPC) 96 % of control | dose: 200.0 mg/kg/injection, schedule: Q04DX002 (ip), vehicle: Klucel (hydroxypropylcellulose) (HPC) 104 % of control | dose: 400.0 mg/kg/injection, schedule: Q04DX002 (ip), vehicle: Klucel (hydroxypropylcellulose) (HPC) 101 % of control

From PubChem BioAssay AID248 (DTP/NCI, 2004)
